# Assay results published in ChEMBL document CHEMBL5678818, “Discovery of potent SOS1 inhibitors that block RAS activation via disruption of the RAS-SOS1 interaction” (Proc Natl Acad Sci U S A, 2019).
# Legend:
# [1] = target: Cyclin-dependent kinase 15 (Homo sapiens) (UniProt Q96Q40); assay: Inhibition of PFTAIRE2 (unknown origin) assessed as residual activity at 1000 nM by KINOMEscan analysis relative to control
# [2] = target: T1, Tyrosine-protein kinase Mer (Homo sapiens) (UniProt Q12866); assay: Inhibition of MERTK (unknown origin) assessed as residual activity at 1000 nM by KINOMEscan analysis relative to control
# T1 sequence (whole entry): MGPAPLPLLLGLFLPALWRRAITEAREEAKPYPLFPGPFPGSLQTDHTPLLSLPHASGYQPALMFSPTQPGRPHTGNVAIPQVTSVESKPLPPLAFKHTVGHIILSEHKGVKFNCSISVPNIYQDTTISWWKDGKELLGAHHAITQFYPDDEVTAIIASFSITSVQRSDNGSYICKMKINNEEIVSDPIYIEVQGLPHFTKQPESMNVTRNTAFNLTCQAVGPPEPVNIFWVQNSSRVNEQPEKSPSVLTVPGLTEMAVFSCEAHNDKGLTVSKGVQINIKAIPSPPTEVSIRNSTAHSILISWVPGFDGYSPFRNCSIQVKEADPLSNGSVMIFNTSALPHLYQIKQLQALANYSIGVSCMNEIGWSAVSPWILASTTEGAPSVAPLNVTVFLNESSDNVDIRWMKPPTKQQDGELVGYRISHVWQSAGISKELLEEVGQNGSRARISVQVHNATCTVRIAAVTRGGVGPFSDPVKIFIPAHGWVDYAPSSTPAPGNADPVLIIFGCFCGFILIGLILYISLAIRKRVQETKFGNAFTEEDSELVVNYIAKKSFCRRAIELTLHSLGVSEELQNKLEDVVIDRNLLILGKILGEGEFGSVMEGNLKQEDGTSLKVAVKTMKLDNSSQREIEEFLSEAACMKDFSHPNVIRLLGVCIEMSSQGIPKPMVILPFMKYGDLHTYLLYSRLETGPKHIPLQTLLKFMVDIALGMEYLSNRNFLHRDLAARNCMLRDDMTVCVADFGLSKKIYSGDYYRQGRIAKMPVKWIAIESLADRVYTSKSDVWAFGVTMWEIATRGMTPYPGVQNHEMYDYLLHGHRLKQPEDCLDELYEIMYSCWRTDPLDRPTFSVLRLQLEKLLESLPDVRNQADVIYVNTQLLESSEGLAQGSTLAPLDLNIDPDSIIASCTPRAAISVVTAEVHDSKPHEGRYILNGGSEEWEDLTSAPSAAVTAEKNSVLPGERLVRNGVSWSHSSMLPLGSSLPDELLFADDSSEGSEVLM
# [3] = target: Mitogen-activated protein kinase 7 (Homo sapiens) (UniProt Q13164); assay: Inhibition of ERK5 (unknown origin) assessed as residual activity at 1000 nM by KINOMEscan analysis relative to control
# [4] = tested on: Phosphatidylinositol 4,5-bisphosphate 3-kinase catalytic subunit alpha isoform (Homo sapiens), P42336 [E545K]; assay: Inhibition of PIK3CA E545K mutant (unknown origin) assessed as residual activity at 1000 nM by KINOMEscan analysis relative to control
# [5] = target: T2, Ankyrin repeat and protein kinase domain-containing protein 1 (Homo sapiens) (UniProt Q8NFD2); assay: Inhibition of ANKK1 (unknown origin) assessed as residual activity at 1000 nM by KINOMEscan analysis relative to control
# T2 sequence (whole entry): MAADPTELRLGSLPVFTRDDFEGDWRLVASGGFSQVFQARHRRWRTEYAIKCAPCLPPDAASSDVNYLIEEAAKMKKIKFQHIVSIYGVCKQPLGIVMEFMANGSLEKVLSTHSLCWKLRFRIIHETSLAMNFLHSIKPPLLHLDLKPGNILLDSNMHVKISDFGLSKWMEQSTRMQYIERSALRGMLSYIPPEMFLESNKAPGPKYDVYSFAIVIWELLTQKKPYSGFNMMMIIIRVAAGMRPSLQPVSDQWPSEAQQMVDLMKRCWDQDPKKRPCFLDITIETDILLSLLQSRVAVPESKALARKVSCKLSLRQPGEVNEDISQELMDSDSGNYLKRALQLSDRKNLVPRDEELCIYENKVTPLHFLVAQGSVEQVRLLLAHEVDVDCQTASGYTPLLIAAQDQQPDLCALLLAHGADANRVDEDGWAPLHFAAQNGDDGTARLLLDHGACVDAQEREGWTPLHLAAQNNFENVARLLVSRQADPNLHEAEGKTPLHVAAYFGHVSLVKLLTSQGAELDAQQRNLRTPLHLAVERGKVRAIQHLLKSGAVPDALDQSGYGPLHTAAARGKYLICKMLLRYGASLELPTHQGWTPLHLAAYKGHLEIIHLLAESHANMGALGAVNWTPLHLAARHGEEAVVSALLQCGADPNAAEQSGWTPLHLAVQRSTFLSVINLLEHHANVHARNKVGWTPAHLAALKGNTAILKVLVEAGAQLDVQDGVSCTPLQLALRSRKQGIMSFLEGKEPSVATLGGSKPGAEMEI
# [6] = tested on: Phosphatidylinositol 4,5-bisphosphate 3-kinase catalytic subunit alpha isoform (Homo sapiens), P42336 [H1047Y]; assay: Inhibition of PIK3CA H1047Y mutant (unknown origin) assessed as residual activity at 1000 nM by KINOMEscan analysis relative to control
# [7] = target: Serine/threonine-protein kinase PAK 1 (Homo sapiens) (UniProt Q13153); assay: Inhibition of PAK1 (unknown origin) assessed as residual activity at 1000 nM by KINOMEscan analysis relative to control
# [8] = target: Bone morphogenetic protein receptor type-1A (Homo sapiens) (UniProt P36894); assay: Inhibition of BMPR1A (unknown origin) assessed as residual activity at 1000 nM by KINOMEscan analysis relative to control
# [9] = target: BMP-2-inducible protein kinase (Homo sapiens) (UniProt Q9NSY1); assay: Inhibition of BIKE (unknown origin) assessed as residual activity at 1000 nM by KINOMEscan analysis relative to control
# Chain of BMP-2-inducible protein kinase (Homo sapiens) (Q9NSY1 whole entry, looked up): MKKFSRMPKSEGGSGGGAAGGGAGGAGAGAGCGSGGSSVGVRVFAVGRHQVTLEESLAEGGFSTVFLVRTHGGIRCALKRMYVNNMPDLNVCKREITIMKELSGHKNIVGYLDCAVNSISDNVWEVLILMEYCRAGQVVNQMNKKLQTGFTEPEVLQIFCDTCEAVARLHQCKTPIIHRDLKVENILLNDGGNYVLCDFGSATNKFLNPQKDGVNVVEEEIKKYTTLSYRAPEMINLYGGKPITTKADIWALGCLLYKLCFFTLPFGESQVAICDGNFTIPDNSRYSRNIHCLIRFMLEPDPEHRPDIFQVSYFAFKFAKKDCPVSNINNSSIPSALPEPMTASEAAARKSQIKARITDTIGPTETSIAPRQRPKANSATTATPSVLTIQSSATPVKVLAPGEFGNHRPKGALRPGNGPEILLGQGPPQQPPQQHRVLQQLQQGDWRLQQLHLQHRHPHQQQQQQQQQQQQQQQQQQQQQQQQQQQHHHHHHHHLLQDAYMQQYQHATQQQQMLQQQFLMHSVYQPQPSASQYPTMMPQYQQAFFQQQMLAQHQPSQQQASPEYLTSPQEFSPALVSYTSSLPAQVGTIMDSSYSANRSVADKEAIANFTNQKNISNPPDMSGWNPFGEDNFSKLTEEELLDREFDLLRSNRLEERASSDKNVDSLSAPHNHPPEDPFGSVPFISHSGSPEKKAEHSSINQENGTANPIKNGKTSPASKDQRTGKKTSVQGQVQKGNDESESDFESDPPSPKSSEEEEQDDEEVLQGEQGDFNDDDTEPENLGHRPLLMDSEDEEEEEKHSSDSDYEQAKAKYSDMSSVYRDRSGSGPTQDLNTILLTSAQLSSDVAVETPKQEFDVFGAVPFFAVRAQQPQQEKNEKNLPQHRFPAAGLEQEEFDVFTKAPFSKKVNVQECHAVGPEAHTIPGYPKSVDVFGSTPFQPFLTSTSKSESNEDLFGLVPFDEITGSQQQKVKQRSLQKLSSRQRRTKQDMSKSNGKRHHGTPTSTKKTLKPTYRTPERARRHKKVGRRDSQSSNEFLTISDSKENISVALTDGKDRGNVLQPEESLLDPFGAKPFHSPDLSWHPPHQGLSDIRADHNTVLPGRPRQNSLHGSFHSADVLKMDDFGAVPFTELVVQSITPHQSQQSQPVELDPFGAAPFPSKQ
# Chain of Bone morphogenetic protein receptor type-1A (Homo sapiens) (P36894 whole entry): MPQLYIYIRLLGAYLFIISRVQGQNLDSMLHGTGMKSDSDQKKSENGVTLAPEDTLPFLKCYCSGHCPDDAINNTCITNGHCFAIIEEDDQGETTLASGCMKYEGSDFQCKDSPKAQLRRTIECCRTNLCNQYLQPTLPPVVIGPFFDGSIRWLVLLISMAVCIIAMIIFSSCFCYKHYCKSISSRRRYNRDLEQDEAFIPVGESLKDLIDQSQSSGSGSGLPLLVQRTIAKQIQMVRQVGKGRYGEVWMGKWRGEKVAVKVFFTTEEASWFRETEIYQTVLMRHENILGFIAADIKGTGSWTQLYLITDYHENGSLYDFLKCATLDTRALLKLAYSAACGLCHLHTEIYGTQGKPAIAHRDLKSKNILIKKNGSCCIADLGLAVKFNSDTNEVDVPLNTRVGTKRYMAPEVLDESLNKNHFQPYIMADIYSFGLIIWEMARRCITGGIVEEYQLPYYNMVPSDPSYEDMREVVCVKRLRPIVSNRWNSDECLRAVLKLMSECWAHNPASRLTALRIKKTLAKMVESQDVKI
# Chain of Serine/threonine-protein kinase PAK 1 (Homo sapiens) (Q13153 whole entry, looked up): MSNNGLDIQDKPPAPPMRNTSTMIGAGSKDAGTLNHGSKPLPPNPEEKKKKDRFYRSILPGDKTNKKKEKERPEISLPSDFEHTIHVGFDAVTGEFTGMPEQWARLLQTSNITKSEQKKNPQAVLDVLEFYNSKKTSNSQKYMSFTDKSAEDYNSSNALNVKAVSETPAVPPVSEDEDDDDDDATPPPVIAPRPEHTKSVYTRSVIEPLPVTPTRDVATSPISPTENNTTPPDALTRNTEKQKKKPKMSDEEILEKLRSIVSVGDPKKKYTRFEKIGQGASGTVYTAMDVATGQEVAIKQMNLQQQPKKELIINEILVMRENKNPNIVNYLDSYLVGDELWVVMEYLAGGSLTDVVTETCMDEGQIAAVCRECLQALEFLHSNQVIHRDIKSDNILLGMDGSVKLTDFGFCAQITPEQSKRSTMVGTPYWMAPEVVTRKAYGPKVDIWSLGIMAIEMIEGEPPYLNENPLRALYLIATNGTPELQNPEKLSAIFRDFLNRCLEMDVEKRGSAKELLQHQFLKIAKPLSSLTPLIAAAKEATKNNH
# Chain of Cyclin-dependent kinase 15 (Homo sapiens) (Q96Q40 whole entry): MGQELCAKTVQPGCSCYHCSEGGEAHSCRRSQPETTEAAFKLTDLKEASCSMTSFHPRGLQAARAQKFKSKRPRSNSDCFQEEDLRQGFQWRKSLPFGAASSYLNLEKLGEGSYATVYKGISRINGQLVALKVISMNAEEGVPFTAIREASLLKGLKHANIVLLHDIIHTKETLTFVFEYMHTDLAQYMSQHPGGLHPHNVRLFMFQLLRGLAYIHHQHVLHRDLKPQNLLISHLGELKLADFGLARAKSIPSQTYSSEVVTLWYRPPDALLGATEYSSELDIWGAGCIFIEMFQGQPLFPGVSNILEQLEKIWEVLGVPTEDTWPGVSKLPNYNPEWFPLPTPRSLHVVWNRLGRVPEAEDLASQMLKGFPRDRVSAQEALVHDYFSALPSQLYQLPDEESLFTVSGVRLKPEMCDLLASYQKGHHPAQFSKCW
# Chain of Phosphatidylinositol 4,5-bisphosphate 3-kinase catalytic subunit alpha isoform (Homo sapiens), P42336 [E545K] (P42336 whole entry E545K, the tested form may be a part, canonical isoform): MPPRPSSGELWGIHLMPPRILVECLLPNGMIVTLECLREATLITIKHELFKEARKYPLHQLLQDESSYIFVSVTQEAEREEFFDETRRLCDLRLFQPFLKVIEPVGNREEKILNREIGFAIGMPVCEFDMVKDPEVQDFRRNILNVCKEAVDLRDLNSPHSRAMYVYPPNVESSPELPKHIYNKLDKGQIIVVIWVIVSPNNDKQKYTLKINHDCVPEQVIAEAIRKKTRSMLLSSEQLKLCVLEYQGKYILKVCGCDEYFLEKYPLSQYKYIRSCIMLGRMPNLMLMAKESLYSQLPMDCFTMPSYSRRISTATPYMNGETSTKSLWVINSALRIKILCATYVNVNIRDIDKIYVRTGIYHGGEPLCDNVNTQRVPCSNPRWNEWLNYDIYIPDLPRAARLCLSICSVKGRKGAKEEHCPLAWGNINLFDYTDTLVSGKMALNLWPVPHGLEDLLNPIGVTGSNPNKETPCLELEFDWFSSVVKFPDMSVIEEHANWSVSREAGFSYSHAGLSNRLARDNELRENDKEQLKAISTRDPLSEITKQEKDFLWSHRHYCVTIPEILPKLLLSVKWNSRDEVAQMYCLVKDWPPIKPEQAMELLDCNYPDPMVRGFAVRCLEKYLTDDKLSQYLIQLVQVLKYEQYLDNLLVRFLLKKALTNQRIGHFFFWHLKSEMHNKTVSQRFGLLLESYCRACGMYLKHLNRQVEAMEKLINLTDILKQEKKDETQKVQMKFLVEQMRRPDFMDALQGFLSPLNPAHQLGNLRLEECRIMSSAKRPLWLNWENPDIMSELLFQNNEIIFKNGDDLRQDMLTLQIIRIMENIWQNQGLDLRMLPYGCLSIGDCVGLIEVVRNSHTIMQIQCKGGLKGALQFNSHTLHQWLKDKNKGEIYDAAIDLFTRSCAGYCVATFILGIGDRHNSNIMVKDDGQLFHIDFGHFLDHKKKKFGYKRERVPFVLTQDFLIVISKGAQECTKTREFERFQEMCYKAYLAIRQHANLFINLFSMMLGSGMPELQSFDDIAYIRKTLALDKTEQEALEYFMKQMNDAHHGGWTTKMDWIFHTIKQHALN
# Chain of Phosphatidylinositol 4,5-bisphosphate 3-kinase catalytic subunit alpha isoform (Homo sapiens), P42336 [H1047Y] (P42336 whole entry H1047Y, canonical isoform): as the sequence (P42336 whole entry E545K, the tested form may be a part, canonical isoform) above, with K545E, H1047Y counted along it
# Chain of Mitogen-activated protein kinase 7 (Homo sapiens) (Q13164 2-816 limits assumed): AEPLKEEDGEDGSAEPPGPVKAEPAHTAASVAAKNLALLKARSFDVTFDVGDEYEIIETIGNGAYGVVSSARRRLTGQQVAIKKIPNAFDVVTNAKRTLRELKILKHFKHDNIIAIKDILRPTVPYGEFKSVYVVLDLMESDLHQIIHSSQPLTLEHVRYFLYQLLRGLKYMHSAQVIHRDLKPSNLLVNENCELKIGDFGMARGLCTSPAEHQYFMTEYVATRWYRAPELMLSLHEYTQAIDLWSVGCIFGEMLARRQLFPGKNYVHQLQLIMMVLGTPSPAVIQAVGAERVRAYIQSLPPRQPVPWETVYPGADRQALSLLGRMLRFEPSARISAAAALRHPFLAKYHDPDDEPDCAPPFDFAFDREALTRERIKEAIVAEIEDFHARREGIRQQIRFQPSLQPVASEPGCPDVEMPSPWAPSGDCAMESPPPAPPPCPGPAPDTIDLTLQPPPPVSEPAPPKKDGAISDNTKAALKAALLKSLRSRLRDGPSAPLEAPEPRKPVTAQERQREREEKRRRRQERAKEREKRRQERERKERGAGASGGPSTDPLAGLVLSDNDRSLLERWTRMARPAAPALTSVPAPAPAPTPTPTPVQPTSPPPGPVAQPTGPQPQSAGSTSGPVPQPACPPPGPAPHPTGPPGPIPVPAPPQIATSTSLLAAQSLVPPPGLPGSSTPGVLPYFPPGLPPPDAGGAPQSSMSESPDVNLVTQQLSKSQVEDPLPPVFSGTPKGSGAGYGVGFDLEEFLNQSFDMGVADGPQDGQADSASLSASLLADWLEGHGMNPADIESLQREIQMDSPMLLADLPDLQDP
SMILES,Activity [1] [%],Activity [2] [%],Activity [3] [%],Activity [4] [%],Activity [5] [%],Activity [6] [%],Activity [7] [%],Activity [8] [%],Activity [9] [%]
COc1cc2nc(C)nc(N[C@H](C)c3cccc(-c4cn[nH]c4)c3)c2cc1OC,94,55,69,54,77,63,62,97,71
COc1cc2ncnc(N[C@H](C)c3cccc4ccccc34)c2cc1OC,100,96,91,98,96,89,90,100,100
